{
  "source": "ChEMBL document CHEMBL5649166",
  "about": "“RIP3 induces apoptosis independent of pronecrotic kinase activity” (Mol Cell, 2014)",
  "key": {"[1]": {"molecular_target": "T1, Calcium/calmodulin-dependent protein kinase type IV (Homo sapiens) (UniProt Q16566)", "T1 sequence (whole entry)": "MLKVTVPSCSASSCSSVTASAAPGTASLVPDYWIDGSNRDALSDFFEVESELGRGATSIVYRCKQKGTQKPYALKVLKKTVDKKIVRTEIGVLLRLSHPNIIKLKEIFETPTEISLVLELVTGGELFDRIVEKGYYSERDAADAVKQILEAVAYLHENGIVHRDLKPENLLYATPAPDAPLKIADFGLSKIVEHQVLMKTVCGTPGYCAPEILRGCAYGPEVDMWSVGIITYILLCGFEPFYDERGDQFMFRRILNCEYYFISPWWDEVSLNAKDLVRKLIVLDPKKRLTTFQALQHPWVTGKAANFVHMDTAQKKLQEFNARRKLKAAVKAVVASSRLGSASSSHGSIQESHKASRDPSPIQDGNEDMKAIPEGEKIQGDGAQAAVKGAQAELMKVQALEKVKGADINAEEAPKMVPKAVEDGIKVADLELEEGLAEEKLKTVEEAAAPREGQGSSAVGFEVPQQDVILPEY", "experiment": "Residual activity of human CAMK4 using KKLNRTLSFAEPG as substrate at 1 uM in presence of 32P-ATP by Hotspot assay relative to control"}, "[2]": {"molecular_target": "CDK6/cyclin D3 (Homo sapiens) (UniProt P30281+Q00534)", "experiment": "Inhibition of human CDK6/cyclin D3 using RB Protein as substrate at 1 uM in presence of 32P-ATP by Hotspot assay relative to control; values are per cent of control"}, "[3]": {"molecular_target": "T2, Mitogen-activated protein kinase 12 (Homo sapiens) (UniProt P53778)", "T2 sequence (whole entry)": "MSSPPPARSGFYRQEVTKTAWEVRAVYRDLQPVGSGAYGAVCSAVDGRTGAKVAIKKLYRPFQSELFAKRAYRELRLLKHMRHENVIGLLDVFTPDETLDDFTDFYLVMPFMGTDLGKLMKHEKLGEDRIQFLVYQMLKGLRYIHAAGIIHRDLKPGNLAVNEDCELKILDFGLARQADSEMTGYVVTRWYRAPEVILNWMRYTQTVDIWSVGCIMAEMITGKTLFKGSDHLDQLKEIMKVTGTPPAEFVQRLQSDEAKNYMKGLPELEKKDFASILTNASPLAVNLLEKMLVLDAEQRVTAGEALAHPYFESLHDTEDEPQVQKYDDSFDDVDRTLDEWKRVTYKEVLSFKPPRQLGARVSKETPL", "experiment": "Inhibition of human P38g using myelin basic protein as substrate at 1 uM in presence of 32P-ATP by Hotspot assay relative to control; values are per cent of control"}, "[4]": {"molecular_target": "Serine/threonine-protein kinase Nek6 (Homo sapiens) (UniProt Q9HC98)", "sequence (Q9HC98 whole entry)": "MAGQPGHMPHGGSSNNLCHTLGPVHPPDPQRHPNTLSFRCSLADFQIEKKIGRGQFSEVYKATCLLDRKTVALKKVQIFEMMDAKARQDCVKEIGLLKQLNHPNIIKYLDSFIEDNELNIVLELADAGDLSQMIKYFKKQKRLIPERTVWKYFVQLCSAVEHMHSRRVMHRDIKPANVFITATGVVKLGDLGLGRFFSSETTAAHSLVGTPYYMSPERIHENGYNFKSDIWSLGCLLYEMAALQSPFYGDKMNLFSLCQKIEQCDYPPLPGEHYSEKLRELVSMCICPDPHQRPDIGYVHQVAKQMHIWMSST", "experiment": "Inhibition of human NEK6 using casein as substrate at 1 uM in presence of 32P-ATP by Hotspot assay relative to control; values are per cent of control"}, "[5]": {"molecular_target": "SRSF protein kinase 3 (Homo sapiens) (UniProt Q9UPE1)", "sequence (Q9UPE1 whole entry)": "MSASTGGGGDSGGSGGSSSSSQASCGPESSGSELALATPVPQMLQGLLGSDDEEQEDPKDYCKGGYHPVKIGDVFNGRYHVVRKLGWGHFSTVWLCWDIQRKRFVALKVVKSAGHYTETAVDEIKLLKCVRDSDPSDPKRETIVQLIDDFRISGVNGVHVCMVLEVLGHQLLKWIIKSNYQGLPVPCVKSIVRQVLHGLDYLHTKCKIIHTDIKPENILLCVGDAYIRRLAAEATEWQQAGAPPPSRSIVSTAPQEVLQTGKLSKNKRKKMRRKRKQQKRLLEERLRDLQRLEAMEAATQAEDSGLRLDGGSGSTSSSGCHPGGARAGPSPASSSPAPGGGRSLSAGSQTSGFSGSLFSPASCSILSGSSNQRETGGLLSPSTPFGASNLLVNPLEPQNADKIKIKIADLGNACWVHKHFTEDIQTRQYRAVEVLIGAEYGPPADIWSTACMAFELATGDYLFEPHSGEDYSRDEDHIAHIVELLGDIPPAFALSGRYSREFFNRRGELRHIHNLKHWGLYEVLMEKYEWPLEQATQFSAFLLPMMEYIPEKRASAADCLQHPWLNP", "experiment": "Inhibition of human MSSK1/STK23 using GRSRSRSRSR as substrate at 1 uM in presence of 32P-ATP by Hotspot assay relative to control; values are per cent of control"}, "[6]": {"molecular_target": "T3, TGF-beta receptor type-1 (Homo sapiens) (UniProt P36897)", "T3 sequence (whole entry)": "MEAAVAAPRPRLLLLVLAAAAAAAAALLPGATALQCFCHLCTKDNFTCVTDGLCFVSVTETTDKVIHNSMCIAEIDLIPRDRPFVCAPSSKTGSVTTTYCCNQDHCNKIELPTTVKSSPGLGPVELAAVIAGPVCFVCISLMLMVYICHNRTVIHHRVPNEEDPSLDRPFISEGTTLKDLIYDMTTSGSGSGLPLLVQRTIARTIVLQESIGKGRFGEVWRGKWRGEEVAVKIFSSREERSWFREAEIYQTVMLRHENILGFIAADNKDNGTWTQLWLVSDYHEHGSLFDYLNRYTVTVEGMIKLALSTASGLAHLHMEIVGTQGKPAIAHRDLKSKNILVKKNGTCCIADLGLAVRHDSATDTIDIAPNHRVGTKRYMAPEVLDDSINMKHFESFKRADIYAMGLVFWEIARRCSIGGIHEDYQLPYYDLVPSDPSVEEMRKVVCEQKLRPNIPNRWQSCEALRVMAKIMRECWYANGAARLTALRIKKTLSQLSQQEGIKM", "experiment": "Inhibition of human ALK5/TGFBR1 using casein as substrate at 1 uM in presence of 32P-ATP by Hotspot assay relative to control; values are per cent of control"}, "[7]": {"molecular_target": "Ephrin type-A receptor 4 (Homo sapiens) (UniProt P54764)", "sequence (P54764 whole entry)": "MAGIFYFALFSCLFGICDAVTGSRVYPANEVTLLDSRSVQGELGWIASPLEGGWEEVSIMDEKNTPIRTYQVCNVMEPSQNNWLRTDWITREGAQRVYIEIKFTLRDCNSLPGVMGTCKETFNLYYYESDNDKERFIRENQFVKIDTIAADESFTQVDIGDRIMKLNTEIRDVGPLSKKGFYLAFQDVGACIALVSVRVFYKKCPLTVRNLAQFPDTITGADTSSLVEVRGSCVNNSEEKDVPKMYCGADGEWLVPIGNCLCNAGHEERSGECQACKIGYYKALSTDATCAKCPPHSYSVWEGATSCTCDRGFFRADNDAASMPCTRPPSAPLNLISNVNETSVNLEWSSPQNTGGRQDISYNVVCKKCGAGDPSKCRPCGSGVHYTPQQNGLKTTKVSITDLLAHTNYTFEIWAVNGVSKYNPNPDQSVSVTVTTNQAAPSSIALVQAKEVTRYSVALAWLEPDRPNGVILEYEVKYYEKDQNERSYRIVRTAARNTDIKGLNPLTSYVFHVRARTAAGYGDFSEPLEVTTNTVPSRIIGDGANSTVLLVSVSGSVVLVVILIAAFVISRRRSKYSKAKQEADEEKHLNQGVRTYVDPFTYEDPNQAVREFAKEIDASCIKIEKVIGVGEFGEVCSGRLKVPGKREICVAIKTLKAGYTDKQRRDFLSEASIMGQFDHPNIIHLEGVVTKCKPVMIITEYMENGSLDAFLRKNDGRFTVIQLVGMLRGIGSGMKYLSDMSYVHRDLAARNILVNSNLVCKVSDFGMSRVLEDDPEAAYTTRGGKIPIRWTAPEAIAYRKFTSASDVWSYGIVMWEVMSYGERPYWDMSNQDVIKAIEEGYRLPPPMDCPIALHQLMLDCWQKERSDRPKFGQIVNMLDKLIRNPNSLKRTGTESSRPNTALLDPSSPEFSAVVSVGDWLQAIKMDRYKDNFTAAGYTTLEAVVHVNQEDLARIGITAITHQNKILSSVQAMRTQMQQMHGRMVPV", "experiment": "Inhibition of human EPHA4 using poly[Glu:Tyr] (4:1) as substrate at 1 uM in presence of 32P-ATP by Hotspot assay relative to control; values are per cent of control"}},
  "data": [
    {"smiles": "CC(C)S(=O)(=O)c1ccc2nccc(Nc3ccc4scnc4c3)c2c1", "values": [
      {"measurement": "residual activity", "setting": "[1]", "value": 91, "unit": "%"},
      {"measurement": "residual activity", "setting": "[2]", "value": 88.3, "unit": "%"},
      {"measurement": "residual activity", "setting": "[3]", "value": 98.5, "unit": "%"},
      {"measurement": "residual activity", "setting": "[4]", "value": 104, "unit": "%"},
      {"measurement": "residual activity", "setting": "[5]", "value": 102, "unit": "%"},
      {"measurement": "residual activity", "setting": "[6]", "value": 101, "unit": "%"},
      {"measurement": "residual activity", "setting": "[7]", "value": 70.9, "unit": "%"}
    ]},
    {"smiles": "Cc1cc(-c2cnc(N)c3c(-c4ccc5scnc5c4)csc23)n(C)n1", "values": [
      {"measurement": "residual activity", "setting": "[1]", "value": 88.6, "unit": "%"},
      {"measurement": "residual activity", "setting": "[2]", "value": 89.6, "unit": "%"},
      {"measurement": "residual activity", "setting": "[3]", "value": 105, "unit": "%"},
      {"measurement": "residual activity", "setting": "[4]", "value": 96, "unit": "%"},
      {"measurement": "residual activity", "setting": "[5]", "value": 93.7, "unit": "%"},
      {"measurement": "residual activity", "setting": "[6]", "value": 97.8, "unit": "%"},
      {"measurement": "residual activity", "setting": "[7]", "value": 48.9, "unit": "%"}
    ]},
    {"smiles": "CNC(=O)c1ccc2c(c1)ncn2-c1ccc(CC(=O)OC(C)(C)C)cc1", "values": [
      {"measurement": "residual activity", "setting": "[1]", "value": 91.8, "unit": "%"},
      {"measurement": "residual activity", "setting": "[2]", "value": 51.5, "unit": "%"},
      {"measurement": "residual activity", "setting": "[3]", "value": 95.7, "unit": "%"},
      {"measurement": "residual activity", "setting": "[4]", "value": 104, "unit": "%"},
      {"measurement": "residual activity", "setting": "[5]", "value": 101, "unit": "%"},
      {"measurement": "residual activity", "setting": "[6]", "value": 94.9, "unit": "%"},
      {"measurement": "residual activity", "setting": "[7]", "value": 95.5, "unit": "%"}
    ]}
  ]
}
